Assay: xn = mol fraction of the nth substance listed
Settings: 101 kPa, Liquid, Vibrating tube method

NC1CCCCC1 [cyclohexylamine] + CCCCO
mass density [kg/m3]
Settings	288.15 K	293.15 K	298.15 K	303.15 K	308.15 K	313.15 K	318.15 K	323.15 K
x2 = 0	871.29	866.747	862.207	857.671	853.138	848.607	844.073	839.547
x2 = 0.0499	870.402	865.907	861.409	856.914	852.415	847.912	843.406	838.847
x2 = 0.1019	869.284	864.828	860.372	855.914	851.45	846.979	842.499	838.018
x2 = 0.1499	868.221	863.8	859.375	854.945	850.509	846.063	841.605	837.144
x2 = 0.1997	867.037	862.648	858.251	853.85	849.438	845.013	840.578	836.136
x2 = 0.2995	864.139	859.8	855.453	851.095	846.722	842.337	837.935	833.516
x2 = 0.4	860.506	856.206	851.899	847.581	843.244	838.892	834.521	830.136
x2 = 0.4994	855.958	851.708	847.444	843.167	838.874	834.561	830.229	825.872
x2 = 0.6006	850.147	845.964	841.767	837.554	833.322	829.067	824.783	820.478
x2 = 0.6977	843.134	839.036	834.924	830.791	826.637	822.458	818.247	814.01
x2 = 0.7497	838.964	834.921	830.861	826.78	822.671	818.541	814.376	810.181
x2 = 0.7984	834.505	830.511	826.498	822.464	818.404	814.315	810.191	806.034
x2 = 0.85	829.604	825.664	821.703	817.72	813.708	809.66	805.587	801.472
x2 = 0.8993	824.498	820.606	816.697	812.762	808.799	804.804	800.769	796.696
x2 = 0.9508	819.064	815.223	811.359	807.471	803.552	799.601	795.606	791.569
